# Tested on: Th17 cells
# Experiment: Lipidomics of Th17 cells
# Format: cell-based, mouse
# Design: key to nCE(16:0) / nCE(18:2) / nDCER(22:0) / nDCER[FA14:0] / nFFA(12:0) / nFFA(14:1) / nFFA(18:4) / nCE(22:0) / nCE(22:6) / nCE(24:1) / nCE[FA14:1] / nCE(12:0) / nCE[FA16:0] / nCE[FA17:0] / nCE[FA18:2] / nCE[FA22:6]: mole percent of each fatty acid within its lipid class; key to nDCER[FA18:1]: mole percent of fatty acid within lipid class
# Protocol: Specific cholesterol precursors like desmosterol and oxysterols, such as 7β, 27-dihydroxycholesterol (7β, 27-OHC), have been identified as ligands for RORγt[21],[22] and shown to modulate Th17 differentiation. […] Next, we extended our studies to lipid metabolites and profiled the lipidome of Th17 cells treated with DMSO or FGIN-1-27.
# (a) Quantitation of cholesterol esters, triacylglycerols (TAGs), phosphatidylethanolamine (PE) and phosphatidylcholine (PC) in Th17 cells 72 hours after treatment with FGIN-1-27. The error bars represent SD. (b) Heat map showing fatty acid composition (mole percent) for different lipid classes after treatment with FGIN-1-27. (c) Pie charts showing proportions of different fatty acid classes namely PUFAs, MUFAs, ODD and SFAs within the cholesterol esters. (d) Transcript analysis for CD5L 72 hours post treatment with FGIN-1-27. The error bars represent SD.
# Th17 cells were differentiated from naïve purified CD4 T cells and treated with either FGIN-1-27 (10 µM) or DMSO during polarization. 10 million cells/treatment were harvested and snap frozen. […] The extracts were concentrated under nitrogen and reconstituted in 0.25 mL of dichloromethane:methanol (50:50) containing 10 mM ammonium acetate. The extracts were placed in vials for infusion-MS analyses, performed on a SelexION equipped Sciex 5500 QTRAP using both positive and negative mode electrospray. Each sample was subjected to 2 analyses, with IMS-MS conditions optimized for lipid classes monitored in each analysis. The 5500 QTRAP was operated in MRM mode to monitor the transitions for over 1,100 lipids from up to 14 lipid classes. Individual lipid species were quantified based on the ratio of signal intensity for target compounds to the signal intensity for an assigned internal standard of known concentration. Lipid class concentrations were calculated from the sum of all molecular species within a class, and fatty acid compositions were determined by calculating the proportion of individual fatty acids within each class.
structure (smiles),measurement,setting,value
"CCCCCCN(CCCCCC)C(=O)Cc1c(-c2ccc(F)cc2)[nH]c2ccccc12 [FGIN-1-27, N, N-di-n-hexyl 2-(4-fluorophenyl) indole-3-acetamide]",nDAG(15:0/18:2),"Th17 cells, 10 µM",0.0745
same,nDAG(16:0/16:0),"Th17 cells, 10 µM",19.5066
same,nDAG(16:0/16:1),"Th17 cells, 10 µM",3.679
same,nDAG(16:0/18:0),"Th17 cells, 10 µM",17.7482
same,nDAG(16:0/18:1),"Th17 cells, 10 µM",17.8834
same,nDAG(16:0/18:2),"Th17 cells, 10 µM",1.3367
same,nDAG(16:0/18:3),"Th17 cells, 10 µM",0.06918
same,nDAG(16:0/20:3),"Th17 cells, 10 µM",2.168
same,nDAG(16:0/20:4),"Th17 cells, 10 µM",0.4462
same,nDAG(16:0/20:5),"Th17 cells, 10 µM",0.02527
same,nDAG(16:0/22:5),"Th17 cells, 10 µM",0.2343
same,nDAG(16:0/22:6),"Th17 cells, 10 µM",0.3639
same,nDAG(16:1/16:1),"Th17 cells, 10 µM",0.2383
same,nDAG(16:1/18:0),"Th17 cells, 10 µM",0.9172
same,nDAG(16:1/18:1),"Th17 cells, 10 µM",1.986
same,nDAG(16:1/18:2),"Th17 cells, 10 µM",0.2498
same,nDAG(16:1/18:3),"Th17 cells, 10 µM",0.05893
same,nDAG(16:1/20:0),"Th17 cells, 10 µM",0.281
same,nDAG(16:1/20:2),"Th17 cells, 10 µM",0.05259
same,nDAG(16:1/20:4),"Th17 cells, 10 µM",0.0501
same,nDAG(16:1/22:6),"Th17 cells, 10 µM",0.1384
same,nDAG(18:0/18:1),"Th17 cells, 10 µM",4.793
same,nDAG(18:0/18:2),"Th17 cells, 10 µM",1.2841
same,nDAG(18:0/18:3),"Th17 cells, 10 µM",0.04099
same,nDAG(18:0/22:6),"Th17 cells, 10 µM",0.5166
same,nDAG(18:1/18:1),"Th17 cells, 10 µM",5.728
same,nDAG(18:1/18:2),"Th17 cells, 10 µM",1.367
same,nDAG(18:1/20:1),"Th17 cells, 10 µM",0.6608
same,nDAG(18:1/20:2),"Th17 cells, 10 µM",0.298
same,nDAG(18:1/20:3),"Th17 cells, 10 µM",0.3254
same,nDAG(18:1/20:4),"Th17 cells, 10 µM",0.3507
same,nDAG(18:1/20:5),"Th17 cells, 10 µM",0.04364
same,nDAG(18:1/22:4),"Th17 cells, 10 µM",0.1472
same,nDAG(18:1/22:5),"Th17 cells, 10 µM",0.2687
same,nDAG(18:1/22:6),"Th17 cells, 10 µM",0.3639
same,nDAG(18:2/18:3),"Th17 cells, 10 µM",0.01794
same,nDAG(18:2/20:3),"Th17 cells, 10 µM",0.05124
same,nDAG(18:2/20:4),"Th17 cells, 10 µM",0.02818
same,nDAG(18:2/20:5),"Th17 cells, 10 µM",0.009187
same,nDAG(18:2/22:4),"Th17 cells, 10 µM",0.01566
same,nDAG(18:2/22:5),"Th17 cells, 10 µM",0.004594
same,nDAG(18:2/22:6),"Th17 cells, 10 µM",0.04424
same,nDAG(20:0/20:0),"Th17 cells, 10 µM",0.1788
same,nDAG[FA12:0],"Th17 cells, 10 µM",0.4433
same,nDAG[FA14:0],"Th17 cells, 10 µM",7.546
same,nDAG[FA14:1],"Th17 cells, 10 µM",0.2449
same,nDAG[FA15:0],"Th17 cells, 10 µM",0.1819
same,nDAG[FA16:0],"Th17 cells, 10 µM",46.2571
same,nDAG[FA16:1],"Th17 cells, 10 µM",4.564
same,nDAG[FA18:0],"Th17 cells, 10 µM",12.8033
same,nDAG[FA18:1],"Th17 cells, 10 µM",21.7078
same,nDAG[FA18:2],"Th17 cells, 10 µM",2.36
same,nDAG[FA18:3],"Th17 cells, 10 µM",0.09864
same,nDAG[FA20:0],"Th17 cells, 10 µM",0.4502
same,nDAG[FA20:1],"Th17 cells, 10 µM",0.3304
same,nDAG[FA20:2],"Th17 cells, 10 µM",0.1753
same,nDAG[FA20:3],"Th17 cells, 10 µM",1.272
same,nDAG[FA20:4],"Th17 cells, 10 µM",0.4517
same,nDAG[FA20:5],"Th17 cells, 10 µM",0.03905
same,nDAG[FA22:4],"Th17 cells, 10 µM",0.08141
same,nDAG[FA22:5],"Th17 cells, 10 µM",0.2538
same,nDAG[FA22:6],"Th17 cells, 10 µM",0.7392
same,nDCER,"Th17 cells, 10 µM",0.1046
same,nDCER(14:0),"Th17 cells, 10 µM",1.585
same,nDCER(16:0),"Th17 cells, 10 µM",30.1076
same,nDCER(18:0),"Th17 cells, 10 µM",3.38
same,nDCER(18:1),"Th17 cells, 10 µM",0.4226
same,nDCER(20:0),"Th17 cells, 10 µM",4.543
same,nDCER(20:1),"Th17 cells, 10 µM",0.06424
same,nDCER(22:0),"Th17 cells, 10 µM",7.184
same,nDCER(22:1),"Th17 cells, 10 µM",1.69
same,nDCER(24:0),"Th17 cells, 10 µM",25.6706
same,nDCER(24:1),"Th17 cells, 10 µM",24.1916
same,nDCER(26:0),"Th17 cells, 10 µM",0.1056
same,nDCER(26:1),"Th17 cells, 10 µM",1.0564
same,nDCER[FA14:0],"Th17 cells, 10 µM",1.585
same,nDCER[FA16:0],"Th17 cells, 10 µM",30.1076
same,nDCER[FA18:0],"Th17 cells, 10 µM",3.38
same,nDCER[FA18:1],"Th17 cells, 10 µM",0.4226
same,nDCER[FA20:0],"Th17 cells, 10 µM",4.543
same,nDCER[FA20:1],"Th17 cells, 10 µM",0.06424
same,nDCER[FA22:0],"Th17 cells, 10 µM",7.184
same,nDCER[FA22:1],"Th17 cells, 10 µM",1.69
same,nDCER[FA24:0],"Th17 cells, 10 µM",25.6706
same,nDCER[FA24:1],"Th17 cells, 10 µM",24.1916
same,nDCER[FA26:0],"Th17 cells, 10 µM",0.1056
same,nDCER[FA26:1],"Th17 cells, 10 µM",1.0564
same,nFFA,"Th17 cells, 10 µM",4.287
same,nFFA(12:0),"Th17 cells, 10 µM",1.325
same,nFFA(14:0),"Th17 cells, 10 µM",3.367
same,nFFA(14:1),"Th17 cells, 10 µM",0.5145
same,nFFA(15:0),"Th17 cells, 10 µM",1.588
same,nFFA(16:0),"Th17 cells, 10 µM",33.0903
same,nFFA(16:1),"Th17 cells, 10 µM",1.393
same,nFFA(17:0),"Th17 cells, 10 µM",2.524
same,nFFA(18:0),"Th17 cells, 10 µM",24.6299
same,nFFA(18:1),"Th17 cells, 10 µM",8.8316
same,nFFA(18:2),"Th17 cells, 10 µM",4.005
same,nFFA(18:3),"Th17 cells, 10 µM",1.526
same,nFFA(18:4),"Th17 cells, 10 µM",0.3971
same,phosphatidylethanolamine (PE) and phosphatidylcholine (PC),not statistically significant,modestly increased
same,lipid metabolites with differential levels,"of 1300 lipid metabolites, p < 0.05",39.6%

# Reference: article PMC7048748, “Anxiolytic Drug FGIN-1-27 Ameliorates Autoimmunity by Metabolic Reprogramming of Pathogenic Th17 Cells” (Scientific Reports, 2020)
